Assay [1] has as its target T1, hM1 (human Muscarinic receptor subtype 1) (Homo sapiens, UniProt P11229).
T1 construct: expressed in transfected cells; host or cells: CHO cells (chinese hamster ovary cells, ATCC)
T1 sequence (P11229 1-460): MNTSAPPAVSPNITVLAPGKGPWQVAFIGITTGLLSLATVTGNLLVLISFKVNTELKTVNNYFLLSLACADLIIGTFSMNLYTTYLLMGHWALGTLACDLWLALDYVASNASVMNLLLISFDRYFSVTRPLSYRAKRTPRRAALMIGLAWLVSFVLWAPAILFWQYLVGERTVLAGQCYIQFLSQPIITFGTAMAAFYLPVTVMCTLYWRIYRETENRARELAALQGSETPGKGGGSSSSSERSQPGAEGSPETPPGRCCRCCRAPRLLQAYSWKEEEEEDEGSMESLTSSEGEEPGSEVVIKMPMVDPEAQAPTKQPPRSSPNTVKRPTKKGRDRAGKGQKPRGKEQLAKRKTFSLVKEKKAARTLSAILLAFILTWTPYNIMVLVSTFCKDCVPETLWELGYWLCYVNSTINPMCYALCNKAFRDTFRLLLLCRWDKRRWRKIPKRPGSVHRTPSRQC
The experiment in a line: Human M1 calcium mobilization FLIPR assay. The settings on record: CHO cells expressing hM1, FLIPR; for EC50: read-out: hM1EC50; for Emax: read-out: hM1Emax. The format is cell-based. The procedure: The compound activity in the present invention (EC50 or IC50) was measured using a 384 plate-based imaging assay that monitors drug induced intracellular Ca^2+ release in whole cells. Activation of hM1 (human Muscarinic receptor subtype 1, gene bank access NM_000738), rM1 (rat Muscarinic receptor subtype 1, gene bank access NM_080773), hM3 (human Muscarinic receptor subtype 3, gene bank access NM_000740NM_000740) and hM5 (human Muscarinic receptor subtype 5, gene bank access NM_0121258) receptors expressed in CHO cells (chinese hamster ovary cells, ATCC) was quantified in a Molecular Devices FLIPR II™ instrument as an increase in fluorescent signal. Inhibition of hM3 and hM5 by compounds was determined by the decrease in fluorescent signal in response to 2 nM acetylcholine activation.
CHO cells were plated in 384-black polylysine coated plate (Costar) at 8000 cells/well/50 μl for 24 hours or 4000 cells/well for 48 hours in a humidified incubator (5% CO2 and 37° C.) in DMEM/F12 medium without selection agent. Prior to the experiment the cell culture medium was removed from the plates by inversion. A loading solution of 30 μl of Hank's balanced salt solution, 10 mM Hepes and 2.5 mM Probenicid at Ph 7.4 (Cat no. 311-520-VL, Wisent) with 2 μM calcium indicator dye (FLUO-3AM, Molecular Probes F14202) was added to each well. Plates were incubated at 37° C. for 60 minutes prior to start the experiment. The incubation was terminated by washing the cells four times in assay buffer, leaving a residual 25 μl buffer per well. Cell plates were then transferred to the FLIPR, ready for compound additions.
The day of experiment, acetylcholine and compounds were diluted in three-fold concentration range (10 points serial dilution) for addition by FLIPR instrument. For all calcium assays, a baseline reading was taken for 30 seconds followed by the addition of 12.5 μl (25 μl for hM1 and rM1) of compounds, resulting in a total well volume of 37.5 μl (50 μl for hM1 and rM1). Data were collected every 1.6 seconds for 300 seconds. For hM3 and hM5 an additional 12.5 μl of acetylcholine (2 nM final) was added at 300 seconds. After this addition of acetylcholine (producing a final volume of 50 μl), the FLIPR continued to collect data every 2 seconds for 240 seconds. The fluorescence emission was read using filter 1 (emission 520-545 nm) by the FLIPR on board CCD camera.
Calcium mobilization output data were calculated as the maximal relative fluorescence unit (RFU) minus the minimal value for both compound and agonist reading frame (except for hM1 and rM1 using only the maximal RFU). Data were analyzed using sigmoidal fits of a non-linear curve-fitting program (XLfit version 5.0.6 from ID Business Solutions Limited, Guildford, UK). All EC50 and IC50 values are reported as geometric means of ‘n’ independent experiments.
For orientation: Calcium assays in cells follow changes in intracellular calcium, usually with a dye or a luminescent sensor.

The target in assay [2] is T2, human M2 receptor (human Muscarinic receptor subtype 2) (Homo sapiens, UniProt P08172).
T2 construct: purchased Perkin-Elmer RBHM2M; host or cells: Chinese hamster ovary cells (CHO), membranes
T2 sequence (P08172 1-466): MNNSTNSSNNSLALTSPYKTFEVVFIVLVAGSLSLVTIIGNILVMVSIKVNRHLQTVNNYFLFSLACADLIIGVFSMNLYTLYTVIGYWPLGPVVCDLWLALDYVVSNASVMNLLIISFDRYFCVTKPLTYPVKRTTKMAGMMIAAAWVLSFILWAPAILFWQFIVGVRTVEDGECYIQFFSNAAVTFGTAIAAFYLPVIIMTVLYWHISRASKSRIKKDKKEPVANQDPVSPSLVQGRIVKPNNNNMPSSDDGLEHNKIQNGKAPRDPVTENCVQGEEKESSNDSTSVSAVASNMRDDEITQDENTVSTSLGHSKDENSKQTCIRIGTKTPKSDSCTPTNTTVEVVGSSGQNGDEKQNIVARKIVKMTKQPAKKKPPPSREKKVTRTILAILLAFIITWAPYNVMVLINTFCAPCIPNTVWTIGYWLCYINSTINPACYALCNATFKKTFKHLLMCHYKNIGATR
The experiment in a line: hM2 receptor GTPγS binding. Format: biochemical. The following applies: CHO membranes expressing hM2, GTPγ35S binding; for EC50: read-out: hM2_EC50. As to the method:
hM2 Receptor GTPyS Binding
Membranes produced from Chinese hamster ovary cells (CHO) expressing the cloned human M2 receptor (human Muscarinic receptor subtype 2, gene bank access NM_000739), were obtained from Perkin-Elmer (RBHM2M). The membranes were thawed at 37° C., passed 3 times through a 23-gauge blunt-end needle, diluted in the GTPγS binding buffer (50 mM Hepes, 20 mM NaOH, 100 mM NaCl, 1 mM EDTA, 5 mM MgCl2, pH 7.4, 100 μM DTT). The EC50, IC50 and Emax of the compounds of the invention were evaluated from 10-point dose-response curves (three fold concentration range) done in 60 μl in 384-well non-specific binding surface plate (Corning). Ten microliters from the dose-response curves plate (5× concentration) were transferred to another 384 well plate containing the following: 10 μg of hM2 membranes, 500 μg of Flashblue beads (Perkin-Elmer) and GDP in a 25 μl volume. An additional 15 μl containing 3.3× (55000 dpm) of GTPγ^35S (0.4 nM final) were added to the wells resulting in a total well volume of 50 μl. Basal and maximal stimulated GTPγ^35S binding was determined in absence and presence of 30 μM of acetylcholine agonist. The membranes/beads mix were pre-incubated for 15 minutes at room temperature with 25 μM GDP prior to distribution in plates (12.5 μM final). The reversal of acetylcholine-induced stimulation (2 μM final) of GTPγ^35S binding was used to assay the antagonist properties (IC50) of the compounds. The plates were incubated for 60 minutes at room temperature with shaking, then centrifuged at 2000 rpm for 5 minutes. The radioactivity (cpm) was counted in a Trilux (Perkin-Elmer).
Values of EC50, IC50 and Emax were obtained using sigmoidal fits of a non-linear curve-fitting program (XLfit version 5.0.6 from ID Business Solutions Limited, Guildford, UK) of percent-stimulated GTPγ^35S binding vs. log (molar ligand).
All EC50 and IC50 values are reported as geometric means of ‘n’ independent experiments. […] The IC50 was the concentration of the compound of the invention at which 50% inhibition of acetylcholine GTPγ^35S binding stimulation has been observed.
(In general: Binding of GTPγS marks nucleotide exchange on a G protein.)

For `CCCCC1CCCN(C[C@@H]2CCCC[C@H]2NC(=O)c2ccc(CN(CC)CC)cc2)C1` (mixture of isomers), in assay [1], the EC50 was found to be 103 nM and the Emax came to 94%. Further, in assay [2], the Emax was determined as 2% and the EC50 was 165 nM.

For the compound `CCOCC1CCCN(C[C@@H]2CCCC[C@H]2NC(=O)c2ccc(-c3cnco3)cc2)C1` (mixture of isomers), the values for the EC50 in assay [1] and in assay [2] were 17 nM and 5480 nM, respectively. For the same compound, the figures for the Emax in assay [1] and in assay [2] were 97% and 25%, respectively.

Turning to `CCO[C@@H]1CCCN(C[C@H]2CCCC[C@@H]2NC(=O)c2cnccn2)C1`, in assay [1], the EC50 was 1500 nM and the Emax worked out at 76%.

As for `CCOC[C@@H]1CCCN(C[C@H]2CCCC[C@@H]2NC(=O)c2ccc(CNS(=O)(=O)C3CC3)cc2)C1`, in assay [1], the EC50 was 11 nM and the Emax was 102%. In assay [2], the Emax is 40% and the EC50 was determined as 1430 nM.

For the compound `CCOC[C@@H]1CCCN(C[C@H]2CCCC[C@@H]2NC(=O)C2CCc3ccccc3O2)C1` (stereo partly drawn) [N-((1S,2R)-2-{[(3R)-3-(ethoxymethyl)piperidin-1-yl]methyl}cyclohexyl)chromane-2-carboxamide], the values for the EC50 in assay [1] and in assay [2] were 55 nM and 570 nM, respectively. In addition, the figures for the Emax in assay [1] and in assay [2] were 98% and 54%, respectively.

Take `C=CCO[C@@H]1CCCN(C[C@H]2CCCC[C@@H]2NC(=O)c2ccc(-n3cccn3)nc2)C1` [N-((1S,2R)-2-{[(3R)-3-(allyloxy)piperidin-1-yl]methyl}cyclohexyl)-6-(1H-pyrazol-1-yl)nicotinamide]: the EC50 in assay [1] is 33 nM; in assay [2], 4450 nM. The Emax in assay [1] came out at 97%; in assay [2], 50%.

Consider `CCOC[C@@H]1CCCN(C[C@H]2CCCC[C@@H]2NC(=O)c2cnc(C)cc2C)C1` [N-((1S,2R)-2-{[(3R)-3-(ethoxymethyl)piperidin-1-yl]methyl}cyclohexyl)-4,6-dimethylnicotinamide], for which, in assay [1], the EC50 worked out at 504 nM and the Emax was 54%.

Turning to `O=C(N[C@H]1CCCC[C@@H]1CN1CCCCC1)c1ccc(-n2cccn2)nc1` [N-[(1S,2R)-2-(piperidin-1-ylmethyl)cyclohexyl]-6-(1H-pyrazol-1-yl)nicotinamide], in assay [1], the EC50 came out at 26 nM and the Emax was found to be 82%. Moreover, in assay [2], the Emax stood at 0% and the EC50 is > 30000 nM.

With `CCOC[C@@H]1CCCN(C[C@H]2CCCC[C@@H]2NC(=O)c2ccc(N3CCCC3)nc2)C1` [N-((1S,2R)-2-{[(3R)-3-(ethoxymethyl)piperidin-1-yl]methyl}cyclohexyl)-6-pyrrolidin-1-ylnicotinamide], in assay [1], the EC50 was found to be 41 nM and the Emax came out at 91%. For the same compound, in assay [2], the Emax came to 60% and the EC50 is 107 nM.

Take `CCOC[C@@H]1CCCN(C[C@H]2CCCC[C@@H]2NC(=O)c2ccc(-n3cnnn3)cc2)C1` [N-((1S,2R)-2-{[(3R)-3-(ethoxymethyl)piperidin-1-yl]methyl}cyclohexyl)-4-(1H-tetrazol-1-yl)benzamide]: in assay [1], the EC50 was 9 nM and the Emax worked out at 95%. For the same compound, in assay [2], the Emax was 27% and the EC50 came to 1210 nM.

As for `CCCCC1CCCN(C[C@@H]2CCCC[C@H]2NC(=O)CCc2ccc(Cl)cc2)C1` (mixture of isomers), in assay [1], the EC50 came out at 174 nM and the Emax worked out at 86%. Moreover, in assay [2], the Emax came to 38% and the EC50 was 1230 nM.

In the case of `CCOC[C@@H]1CCCN(C[C@H]2CCCC[C@@H]2NC(=O)C2CCCCC2)C1` [N-((1S,2R)-2-{[(3R)-3-(ethoxymethyl)piperidin-1-yl]methyl}cyclohexyl)cyclohexanecarboxamide], in assay [1], the EC50 was 157 nM and the Emax amounted to 75%. In assay [2], the Emax came to 30% and the EC50 came out at 1080 nM.

With `CCOC[C@@H]1CCCN(C[C@H]2CCCC[C@@H]2NC(=O)CNC(C)=O)C1`, in assay [1], the EC50 turned out to be 322 nM and the Emax stood at 91%.

With `O=C(N[C@H]1CCCC[C@@H]1CN1CCCC(c2ccccc2)C1)c1ccc(-n2cccn2)nc1` (stereo partly drawn), in assay [1], the EC50 amounted to 393 nM and the Emax was 105%.

(Values after patent US20070259888A1, “Novel Compounds” (ASTRAZENECA AB, priority 2006, published 2007).)
